Measured values: publication PMC9027599, “Secondary Metabolites in Basil, Bio-Insecticide, Inhibition Effect, and In Silico Molecular Docking against Proteolytic Enzymes of the Red Palm Weevil (Rhynchophorus ferrugineus)” (Plants, 2022)

Tested on: cysteine protease
Assay: Cysteine protease activity of midgut from larvae treated 24 h (in vivo)
Set-up: species or system Rhynchophorus ferrugineus
Settings: midgut of fourth instar larvae treated for 24 h
Description: The activity of cysteine proteinase was determined in the fourth midgut instar larval homogenate of R. ferrugineus using the substrate Z-Phe-Arg-MNA [1]. […] The reaction was centrifuged (at 5000 rpm, 6 min), then the absorbance was determined (at 520 nm). The activity of cysteine proteinase was measured using an ELISA quick plate reader at the OD520/60 min/mg of midgut protein. […]
As a control, an assay combination devoid of inhibitors was utilized. The absorbance of the enzymes was determined using an ELISA plate quick reader at various wavelengths. The percentage activity of the control enzyme for each inhibitor was evaluated for each enzyme. Protease activity was assayed in vivo in the R. ferrugineus fourth midgut larval instars, which were treated with 1, 10, 50, 100, 500, 1000, and 5000 mg/L of extracts or compounds, measured as described above. […]

`C[C@@H]1O[C@@H](OC[C@H]2O[C@@H](Oc3c(-c4ccc(O)c(O)c4)oc4cc(O)cc(O)c4c3=O)[C@H](O)[C@@H](O)[C@@H]2O)[C@H](O)[C@H](O)[C@H]1O` [Quercetin-3-O-rutinoside] was tested, and the “IC50 against cysteine protease (in vivo)” value was 746.6 µg/mL.
